Test results as given in ChEMBL document CHEMBL3045752, “Sideroxylin and 8-demethylsideroxylin from Eucalyptus saligna (Myrtaceae)” (2001).

Tests used:
Type in all cases: functional
Locusta migratoria = assay: Antifeedant activity against Locusta migratoria final stadium nymphs at 100 ppm by glass-fiber choice assay
Heliothis virescens = assay: Antifeedant activity against Heliothis virescens (tobacco budworm) final stadium […] at 100 ppm by glass-fiber choice assay
Spodoptera exigua = assay: Antifeedant activity against Spodoptera exigua final stadium […] at 100 ppm by glass-fiber choice assay

`COc1cc(/C=C/C=O)ccc1O` [CONIFERYL ALDEHYDE] showed an AFI (Locusta migratoria) of 4.5%, an AFI (Heliothis virescens) of 2.2% and an AFI (Spodoptera exigua) of 4%.

Work on `COc1c(C)c(O)c2c(=O)cc(-c3ccc(O)cc3)oc2c1C` [SIDEROXYLIN] yielded an AFI (Locusta migratoria) of 24.2%, an AFI (Heliothis virescens) of 19.6% and an AFI (Spodoptera exigua) of 21.2%.

`COc1cc2oc(-c3ccc(O)cc3)cc(=O)c2c(O)c1C` [8-DEMETHYLSIDEROXYLIN] gave an AFI (Locusta migratoria) of 1.9%, an AFI (Heliothis virescens) of 7.3% and an AFI (Spodoptera exigua) of 8.9%.
